From patent US7713994B2 (Wyeth LLC, priority 2005, dated 2010)

target: T1, cyclin D1/cdk 4 enzyme (Homo sapiens, UniProt P11802); assay: CDK4 ELISA kinase assay (phospho-Rb ser 795 detection); assay type: biochemical; settings: In Vitro Enzyme Assay, cyclin D1/cdk 4, read-out: CDK4 IC50
T1 construct: made in house; host or cells: Sf9 insect cells, recombinant baculovirus
Procedure: • 1. High-binding ELISA microtiter plates (Costar) were coated with 40 μl of the kinase substrate (GST fusion of C-terminal fragment of the retinoblastoma susceptibility gene product) diluted to 10 μg/ml in tris-buffered saline (TBS), overnight at 4° C. • 2. Non-specific binding sites were blocked for 1 hour at 4° C. with Superblock in TBS (Pierce), and the plates rinsed with water. • 3. For the screen, 1.5 μl of test compound (200 μg/ml stock in 20% DMSO/20 mM HEPES, pH 7.5) was added to each well. Final dose of the test compound in the assay was 10 ug/ml. […] The kinase reaction (30 μl) was dispensed into each well. Reactions contained 200 μM ATP, 0.5 mg/ml bovine serum albumin (BSA; Sigma), and 0.5 μl partially purified cyclin D1/cdk 4 enzyme*. The enzyme complex is expressed in insect cells (Sf9) infected with recombinant baculovirus and partially purified using ammonium sulfate fractionation. Reaction volumes were adjusted to 30 μl with kinase assay buffer (50 mM HEPES, pH 7.5, 10 mM MgCl2, 5% glycerol, 10 mM 2-mercaptoethanol). • *: For CDK2 assay, 1.0 μl cyclin E/CDK2 enzyme (diluted 1:1000 in kinase assay buffer) was used. The enzyme is isolated from insect cells (Sf9) infected with recombinant baculovirus and partially purified using ammonium sulfate fractionation. For CDK1 assay, 0.08 μl cyclin B/CDK1 enzyme [New England BioLabs; the enzyme is isolated from insect cells (Sf9) infected with recombinant baculovirus carrying human cdc 2 and human cyclin B] was used.
[…] • 5. Plates were incubated at 30° C. for 1 hour. • 6. The reaction mixture was removed by aspiration and replaced with 250 μl TBS containing 0.1% Tween-20 and 5% nonfat dry milk (blocking buffer). The plates were incubated at 4° C. for 1 hour. • 7. The blocking buffer was removed and replaced with 50 μl of the primary antibody [anti-phospho-Rb ser 795 (New England BioLabs) diluted 1:1000 in blocking buffer]. Incubation was at 4° C. for 16-20 hours. • 8. The wells were rinsed 3 times with 250 μl of TBS containing 0.1% Tween-20 followed by the addition of 50 μl of secondary antibody [anti-rabbit IgG conjugated to horseradish peroxidase (Amersham Life Science) diluted 1:1000 in blocking buffer]. • 9. After a 1 hour incubation at room temperature, the wells were rinsed 3 times with 250 μl of TBS/0.1% Tween 20. • 10. TMB (3,3′,5,5′-tetramethylbenzidine dihydrochloride) substrate solution (100 μl; Pierce) was added to each well and the color development reaction allowed to proceed 5-10 minutes at room temperature with shaking. The reaction was stopped by the addition of 2N sulfuric acid (100 μl) and the absorbance values read at 450 nm in a microplate reader (Molecular Devices). Analysis of Results: • 1. The percentage of the absorbance value in wells containing the test compound relative to control wells (no test agent) was determined. • 2. IC50 values of selected compounds were determined from inhibition curves, after subtracting background values (no substrate).

T1 sequence (P11802 whole entry, species assumed): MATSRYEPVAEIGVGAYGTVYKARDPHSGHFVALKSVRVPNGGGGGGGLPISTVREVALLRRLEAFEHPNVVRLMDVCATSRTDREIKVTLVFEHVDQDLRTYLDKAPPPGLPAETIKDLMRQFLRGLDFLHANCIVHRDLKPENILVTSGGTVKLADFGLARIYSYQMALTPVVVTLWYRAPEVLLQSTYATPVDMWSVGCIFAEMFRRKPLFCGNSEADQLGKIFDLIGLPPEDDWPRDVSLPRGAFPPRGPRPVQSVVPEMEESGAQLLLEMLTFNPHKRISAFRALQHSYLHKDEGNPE
T1 sequence (P24385 whole entry partner, species assumed): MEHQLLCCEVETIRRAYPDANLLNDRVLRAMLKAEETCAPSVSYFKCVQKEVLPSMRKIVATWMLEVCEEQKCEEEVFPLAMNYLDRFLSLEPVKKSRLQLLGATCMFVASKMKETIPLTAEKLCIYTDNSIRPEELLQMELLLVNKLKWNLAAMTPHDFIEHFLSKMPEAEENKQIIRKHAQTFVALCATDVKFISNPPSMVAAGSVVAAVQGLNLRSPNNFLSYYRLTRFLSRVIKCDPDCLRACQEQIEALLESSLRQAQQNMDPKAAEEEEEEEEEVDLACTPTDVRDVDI

| Structure (SMILES) | IC50 [µM] |
| --- | --- |
| O=C1NC(=O)c2ccccc2C1=CNCc1cccc(NS(=O)(=O)CC(F)(F)F)c1 [Example 582, 2,2,2-Trifluoro-ethanesulfonic acid (3-{[(1,3-dioxo-2,3-dihydro-1H-isoquinolin-4-ylidenemethyl)-amino]-methyl}-phenyl)-amide] | 9.6 |
| CCS(=O)(=O)Nc1cccc(CNC=C2C(=O)NC(=O)c3ccccc32)c1 [Example 583, Ethanesulfonic acid (3-{[(1,3-dioxo-2,3-dihydro-1H-isoquinolin-4-ylidenemethyl)-amino]-methyl}-phenyl)-amide] | 17.9 |
| CCCS(=O)(=O)Nc1cccc(CNC=C2C(=O)NC(=O)c3ccccc32)c1 [Example 584, Propane-1-sulfonic acid (3-{[(1,3-dioxo-2,3-dihydro-1H-isoquinolin-4-ylidenemethyl)-amino]-methyl}-phenyl)-amide] | 19.4 |
| CC(=O)Nc1cccc(CNC=C2C(=O)NC(=O)c3ccccc32)c1 [Example 585, N-(3-{[(1,3-Dioxo-2,3-dihydro-1H-isoquinolin-4-ylidenemethyl)-amino]-methyl)-phenyl)-acetamide] | 42.5 |
| O=C1NC(=O)c2ccccc2C1=CNCc1cccc(NC(=O)C2CC2)c1 [Example 586, Cyclopropanecarboxylic acid (3-{[(1,3-dioxo-2,3-dihydro-1H-isoquinolin-4-ylidenemethyl)-amino]-methyl}-phenyl)-amide] | 31.3 |
| O=C1NC(=O)c2ccccc2C1=CNCc1cccc(NC(=O)C2CCC2)c1 [Example 587, Cyclobutanecarboxylic acid (3-{[(1,3-dioxo-2,3-dihydro-1H-isoquinolin-4-ylidenemethyl)-amino]-methyl}-phenyl)-amide] | 43.5 |
| O=C1NC(=O)c2ccccc2C1=CNCc1ccc(NS(=O)(=O)c2cccs2)cc1 [Example 588, Thiophene-2-sulfonic acid (4-{[(1,3-dioxo-2,3-dihydro-1H-isoquinolin-4-ylidenemethyl)-amino]-methyl}-phenyl)-amide] | 37.3 |
| CS(=O)(=O)Nc1ccc(CNC=C2C(=O)NC(=O)c3ccccc32)cc1 [Example 589] | 36.4 |
| O=C1NC(=O)c2ccccc2C1=CNCc1ccc(NS(=O)(=O)Cc2ccccc2)cc1 [Example 590, N-(4{[(1,3-Dioxo-2,3-dihydro-1H-isoquinolin-4-ylidenemethyl)-amino]-methyl}-phenyl)-C-phenyl-methanesulfonamide] | 38.5 |
| CCCS(=O)(=O)Nc1ccc(CNC=C2C(=O)NC(=O)c3ccccc32)cc1 [Example 592, Propane-1-sulfonic acid (4{[(1,3-dioxo-2,3-dihydro-1H-isoquinolin-4-ylidenemethyl)-amino]-methyl}-phenyl)-amide] | 29.9 |
| CCN1CCN(c2ccc(NC=C3C(=O)NC(=O)c4ccccc43)cc2)CC1 [Example 595, 4-{[4-(4-Ethyl-piperazin-1-yl)-phenylamino]-methylene}-4H-isoquinoline-1,3-dione] | 27.4 |
| N#CCN1CCN(c2ccc(N/C=C3\C(=O)NC(=O)c4ccccc43)cc2)CC1 [Example 596, (4-{4-[(1,3-Dioxo-2,3-dihydro-1H-isoquinolin-4-ylidenemethyl)-amino]-phenyl}-piperazin-1-yl)-acetonitrile] | 27.7 |
| C=CCN1CCN(c2ccc(NC=C3C(=O)NC(=O)c4ccccc43)cc2)CC1 [Example 597, 4-{[4-(4-Allyl-piperazin-1-yl)-phenylamino]-methylene}-4H-isoquinoline-1,3-dione] | 39.2 |
| O=C1NC(=O)c2ccccc2C1=CNc1ccc(N2CCN(CCO)CC2)cc1 [Example 598, 4-({4-[4-(2-Hydroxy-ethyl)-piperazin-1-yl]-phenylamino}-methylene)-4H-isoquinoline-1,3-dione] | 33.1 |
| CCN(CC)CCN1CCN(c2ccc(NC=C3C(=O)NC(=O)c4ccccc43)cc2)CC1 [Example 599, 4-({4-[4-(2-Diethylamino-ethyl)-piperazin-1-yl]-phenylamino}-methylene)-4H-isoquinoline-1,3-dione] | 39.7 |
| CC(C)N1CCN(c2ccc(NC=C3C(=O)NC(=O)c4ccccc43)cc2)CC1 [Example 600, 4-{[4-(4-Isopropyl-piperazin-1-yl)-phenylamino]-methylene}-4H-isoquinoline-1,3-dione] | 23.1 |
| O=C1NC(=O)c2ccccc2C1=CNc1ccc(N2CCN(C3CCCC3)CC2)cc1 [Example 601, 4-{[4-(4-Cyclopentyl-piperazin-1-yl)-phenylamino]-methylene}-4H-isoquinoline-1,3-dione] | 12 |
| O=C1NC(=O)c2ccccc2C1=CNc1ccc(N2CCN(CC3CCC3)CC2)cc1 [Example 602, 4-{[4-(4-Cyclobutylmethyl-piperazin-1-yl)-phenylamino]-methylene}-4H-isoquinoline-1,3-dione] | 21.5 |
| O=C1NC(=O)c2ccccc2C1=CNCc1cccc(NCC(F)(F)F)c1 [Example 603, 4-{[3-(2,2,2-Trifluoro-ethylamino)-benzylamino]-methylene}-4H-isoquinoline-1,3-dione] | 48.3 |
| CNc1ccc(CN/C=C2\C(=O)NC(=O)c3ccccc32)cc1 [Example 604, 4-[(4-Methylamino-benzylamino)-methylene]-4H-isoquinoline-1,3-dione] | 23.5 |
| O=C1NC(=O)c2ccccc2C1=CNc1ccc(CNS(=O)(=O)CC(F)(F)F)cc1 [Example 605, 2,2,2-Trifluoro-ethanesulfonic acid 4-[(1,3-dioxo-2,3-dihydro-1H-isoquinolin-4-ylidenemethyl)-amino]-benzylamide] | 22.1 |
| CCNS(=O)(=O)c1ccc(CN/C=C2\C(=O)NC(=O)c3ccccc32)cc1 [Example 606, 4-{[(1,3-Dioxo-2,3-dihydro-1H-isoquinolin-4-ylidenemethyl)-amino]-methyl}-N-ethyl-benzenesulfonamide] | 21.2 |
| O=C1NC(=O)c2ccccc2C1=CNCc1ccc(S(=O)(=O)NCc2cccnc2)cc1 [Example 607, 4-{[(1,3-Dioxo-2,3-dihydro-1H-isoquinolin-4-ylidenemethyl)-amino]-methyl}-N-pyridin-3-ylmethyl-benzenesulfonamide] | 45.5 |
| CS(=O)(=O)NCc1ccc(NC=C2C(=O)NC(=O)c3ccccc32)cc1 [Example 612, N-{4-[(1,3-Dioxo-2,3-dihydro-1H-isoquinolin-4-ylidenemethyl)-amino]-benzyl}-methanesulfonamide] | 48.9 |
| CCS(=O)(=O)NCc1ccc(N/C=C2\C(=O)NC(=O)c3ccccc32)cc1 [Example 613, Ethanesulfonic acid 4-[(1,3-dioxo-2,3-dihydro-1H-isoquinolin-4-ylidenemethyl)-amino]-benzylamide] | 33.1 |
| CCCN(CCC)Cc1ccc(NC=C2C(=O)NC(=O)c3ccccc32)cc1 [Example 614, 4-[(4-Dipropylaminomethyl-phenylamino)-methylene]-4H-isoquinoline-1,3-dione] | 25.3 |
| O=C1NC(=O)c2ccccc2C1=CNc1ccc(CN2CCCC(O)C2)cc1 (stereo not drawn) [Example 615, 4-{[4-(3-Hydroxy-piperidin-1-ylmethyl)-phenylamino]-methylene}-4H-isoquinoline-1,3-dione] | 25.7 |
| COCCN(C)Cc1ccc(N/C=C2\C(=O)NC(=O)c3ccccc32)cc1 [Example 616, 4-[(4-{[(2-Methoxy-ethyl)-methyl-amino]-methyl}-phenylamino)-methylene]-4H-isoquinoline-1,3-dione] | 14.8 |
| O=C1NC(=O)c2ccccc2C1=CNc1ccncc1 [Example 618, 4-(Pyridin-4-ylaminomethylene)-4H-isoquinoline-1,3-dione] | 40.1 |
| O=C1NC(=O)c2ccccc2C1=CNc1cccc2c(O)cccc12 [Example 619, 4-[(5-Hydroxy-naphthalen-1-ylamino)-methylene]-4H-isoquinoline-1,3-dione] | 14.3 |
